Patent publication US20260027116A1, “Methods of Treating Chronic Graft-Versus-Host Disease Following Allogeneic Hematopoietic Stem Cell Transplantation” (Kadmon Corporation, LLC, priority 2022, published 2026)

Test system: chronic graft-versus-host disease (cGVHD)
Experiment: Example 2 phase II randomized study: response per 2014 NIH criteria (best ORR, DOR, TTR, FFS, OS)
Assay type: in vivo, human
Details: for ORR / ORR for responses occurring within 6 mo of treatment / ORR for responses occurring within 12 mo of treatment: mITT
Method: All responses were assessed by the study site investigators.
Here, we report data from the 12-month analysis.

[1] = responses within 6 mo of treatment, 200 mg daily (n = 66)
[2] = responses within 6 mo of treatment, 200 mg twice daily (n = 66)
[3] = responses within 6 mo of treatment, Total (N = 132)
[4] = responses within 12 mo of treatment, 200 mg daily (n = 66)
[5] = responses within 12 mo of treatment, 200 mg twice daily (n = 66)
[6] = responses within 12 mo of treatment, Total (N = 132)

SMILES: CC(C)NC(=O)COc1cccc(-c2nc(Nc3ccc4[nH]ncc4c3)c3ccccc3n2)c1 [Belumosudil, 2-{3-[4-(1H-indazol-5-ylamino)-2-quinazolinyl]phenoxy}-N-(propan-2-yl) acetamide]
- CR, Esophagus (200 mg BID): 5 (42) n (%)
- CR, Eyes (200 mg BID): 6 (12) n (%)
- CR, Joints and fascia (200 mg BID): 10 (20) n (%)
- CR, Liver (200 mg BID): 2 (50) n (%)
- CR, Lower GI (200 mg BID): 4 (57) n (%)
- CR, Lungs (200 mg BID): 2 (9) n (%)
- CR, Mouth (200 mg BID): 17 (41) n (%)
- CR, Skin (200 mg BID): 10 (18) n (%)
- CR, Upper GI (200 mg BID): 4 (40) n (%)
- ORR, Esophagus (200 mg BID): 5 (42) n (%)
- ORR, Eyes (200 mg BID): 25 (51) n (%)
- ORR, Joints and fascia (200 mg BID): 33 (67) n (%)
- ORR, Liver (200 mg BID): 2 (50) n (%)
- ORR, Lower GI (200 mg BID): 5 (71) n (%)
- ORR, Lungs (200 mg BID): 5 (22) n (%)
- ORR, Mouth (200 mg BID): 24 (57) n (%)
- ORR, Skin (200 mg BID): 23 (42) n (%)
- ORR, Upper GI (200 mg BID): 4 (40) n (%)
- PR, Esophagus (200 mg BID): 0 n (%)
- PR, Eyes (200 mg BID): 19 (39) n (%)
- PR, Joints and fascia (200 mg BID): 23 (47) n (%)
- PR, Liver (200 mg BID): 0 n (%)
- PR, Lower GI (200 mg BID): 1 (14) n (%)
- PR, Lungs (200 mg BID): 3 (13) n (%)
- PR, Mouth (200 mg BID): 7 (17) n (%)
- PR, Skin (200 mg BID): 13 (24) n (%)
- PR, Upper GI (200 mg BID): 0 n (%)
- CR, Esophagus (200 mg QD): 9 (47) n (%)
- CR, Eyes (200 mg QD): 8 (17) n (%)
- CR, Joints and fascia (200 mg QD): 10 (20) n (%)
- CR, Liver (200 mg QD): 2 (22) n (%)
- CR, Lower GI (200 mg QD): 4 (67) n (%)
- CR, Lungs (200 mg QD): 4 (17) n (%)
- CR, Mouth (200 mg QD): 15 (50) n (%)
- CR, Skin (200 mg QD): 8 (15) n (%)
- CR, Upper GI (200 mg QD): 7 (54) n (%)
- ORR, Esophagus (200 mg QD): 9 (47) n (%)
- ORR, Eyes (200 mg QD): 16 (33) n (%)
- ORR, Joints and fascia (200 mg QD): 38 (75) n (%)
- ORR, Liver (200 mg QD): 3 (33) n (%)
- ORR, Lower GI (200 mg QD): 4 (67) n (%)
- ORR, Lungs (200 mg QD): 7 (29) n (%)
- ORR, Mouth (200 mg QD): 16 (53) n (%)
- ORR, Skin (200 mg QD): 18 (33) n (%)
- ORR, Upper GI (200 mg QD): 8 (62) n (%)
- PR, Esophagus (200 mg QD): 0 n (%)
- PR, Eyes (200 mg QD): 8 (17) n (%)
- PR, Joints and fascia (200 mg QD): 28 (55) n (%)
- PR, Liver (200 mg QD): 1 (11) n (%)
- PR, Lower GI (200 mg QD): 0 n (%)
- PR, Lungs (200 mg QD): 3 (13) n (%)
- PR, Mouth (200 mg QD): 1 (3) n (%)
- PR, Skin (200 mg QD): 10 (18) n (%)
- PR, Upper GI (200 mg QD): 1 (8) n (%)
- FFS at 6 mo (95% CI) (200 mg daily (n = 66)): 73 (61-83) %
- FFS at 12 mo (95% CI) (200 mg daily (n = 66)): 57 (44-68) %
- FFS at 6 mo (95% CI) (200 mg twice daily (n = 66)): 76 (63-84) %
- FFS at 12 mo (95% CI) (200 mg twice daily (n = 66)): 56 (43-67) %
- 2-year OS rate (Example 2): 89%
- additional lung CRs based on NIH lung symptom score 1 to 0 (Example 2): 3 subjects
- best ORR in subjects refractory to their last lines of therapy (Example 2): 75%
- initiation of a new systemic cGVHD therapy (failure event) (Example 2): 38%
- lung CR based on normalization of FEV1 (Example 2): 3 subjects
- median FEV1 increase for all subjects achieving lung PR (Example 2): 10%
- median FEV1 increase in lung CR subjects (Example 2): 23%
- nonrelapse mortality (NRM) (Example 2): 7%
- overall median time to response (Example 2): 5 weeks
- relapse (Example 2): 3%
- responses seen after 6 to 12 months of treatment (Example 2): 9%
- skin responders with decrease in body surface area involvement (Example 2): 15 subjects
- skin responders with decrease in sclerotic features (Example 2): 11 subjects
- skin responders with improvement in both body surface area and sclerotic features (Example 2): 13 subjects
- subjects with lung responses (Example 2): 12 subjects
- subjects with skin responses (Example 2): 41 subjects
- best ORR (Example 2, 200 mg daily): 74%
- best ORR (Example 2, 200 mg twice daily): 77%
- overall FFS rate (Example 2, at 6 months): 75%
- overall FFS rate (Example 2, at 12 months): 56%
- ORRs in all subgroups (Example 2, mITT): 61-85%
- best ORR in the esophagus (Example 2, mITT): 45%
- best ORR in the eyes (Example 2, mITT): 42%
- best ORR in the joints/fascia (Example 2, mITT): 71%
- best ORR in the liver (Example 2, mITT): 39%
- best ORR in the lower GI tract (Example 2, mITT): 69%
- best ORR in the lungs (Example 2, mITT): 26%
- best ORR in the mouth (Example 2, mITT): 55%
- best ORR in the skin (Example 2, mITT): 37%
- best ORR in the upper GI tract (Example 2, mITT): 52%
- ORR, subgroup with prior ibrutinib therapy (Example 2, pooled arms): 74%
- ORR, subgroup with prior ruxolitinib therapy (Example 2, pooled arms): 68%
- median DOR (Example 2, responder population): 54 weeks
- CR, Esophagus (Total): 14 (45) n (%)
- CR, Eyes (Total): 14 (14) n (%)
- CR, Joints and fascia (Total): 20 (20) n (%)
- CR, Liver (Total): 4 (31) n (%)
- CR, Lower GI (Total): 8 (62) n (%)
- CR, Lungs (Total): 6 (13) n (%)
- CR, Mouth (Total): 32 (44) n (%)
- CR, Skin (Total): 18 (16) n (%)
- CR, Upper GI (Total): 11 (48) n (%)
- ORR, Esophagus (Total): 14 (45) n (%)
- ORR, Eyes (Total): 41 (42) n (%)
- ORR, Joints and fascia (Total): 71 (71) n (%)
- ORR, Liver (Total): 5 (39) n (%)
- ORR, Lower GI (Total): 9 (69) n (%)
- ORR, Lungs (Total): 12 (26) n (%)
- ORR, Mouth (Total): 40 (56) n (%)
- ORR, Skin (Total): 41 (37) n (%)
- ORR, Upper GI (Total): 12 (52) n (%)
- PR, Esophagus (Total): 0 n (%)
- PR, Eyes (Total): 27 (28) n (%)
- PR, Joints and fascia (Total): 51 (51) n (%)
- PR, Liver (Total): 1 (8) n (%)
- PR, Lower GI (Total): 1 (8) n (%)
- PR, Lungs (Total): 6 (13) n (%)
- PR, Mouth (Total): 8 (11) n (%)
- PR, Skin (Total): 23 (21) n (%)
- PR, Upper GI (Total): 1 (4) n (%)
- FFS at 6 mo (95% CI) (Total (N = 132)): 75 (66-81) %
- FFS at 12 mo (95% CI) (Total (N = 132)): 56 (47-64) %
- ORR (200 mg daily (n = 66)): 49 (74) n (%)
- ORR for responses occurring within 6 mo of treatment (200 mg daily (n = 66)): 47 (71) n (%)
- ORR for responses occurring within 12 mo of treatment (200 mg daily (n = 66)): 49 (74) n (%)
- ORR (200 mg twice daily (n = 66)): 51 (77) n (%)
- ORR for responses occurring within 6 mo of treatment (200 mg twice daily (n = 66)): 48 (73) n (%)
- ORR for responses occurring within 12 mo of treatment (200 mg twice daily (n = 66)): 50 (76) n (%)
- ORR (Total (N = 132)): 100 (76) n (%)
- ORR for responses occurring within 6 mo of treatment (Total (N = 132)): 95 (72) n (%)
- ORR for responses occurring within 12 mo of treatment (Total (N = 132)): 99 (75) n (%)
- CR [1]: 2 (3) n (%)
- PR [1]: 45 (68) n (%)
- CR [2]: 1 (2) n (%)
- PR [2]: 47 (71) n (%)
- CR [3]: 3 (2) n (%)
- PR [3]: 92 (70) n (%)
- CR [4]: 4 (6) n (%)
- PR [4]: 45 (68) n (%)
- CR [5]: 2 (3) n (%)
- PR [5]: 48 (73) n (%)
- CR [6]: 6 (5) n (%)
- PR [6]: 93 (71) n (%)
